Experimental data from patent publication EP0067666A1, “Salts of antimicrobial naphthyridine and quinoline compounds and their production” (priority 1981, dated 1982).
Marks after values point to notes of the source that are not given here.

Assays:
[1] = 10x dilution of soluble forms with standard IV solutions (pH, precipitate); format: physicochemical; settings: for Solution 1 pH dil / Solution 1 ppt 24 hr: Cpd A salt solution diluted 10x with 0.9% NaCl; for Solution 1 ppt 24 hr / Solution 3 ppt 24 hr / Solution 2 ppt 24 hr / Solution 4 ppt 24 hr: precipitate at 24 hr; for Solution 2 pH dil / Solution 2 ppt 24 hr: Cpd A salt solution diluted 10x with 5% Dextrose; for Solution 3 pH dil / Solution 3 ppt 24 hr: Cpd A salt solution diluted 10x with 5% Dextrose + 0.9% NaCl; for Solution 4 pH dil / Solution 4 ppt 24 hr: Cpd A salt solution diluted 10x with Lactated Ringer's Solution; for pH of Solut.: undiluted Cpd A solution; for Concen. of Cpd A: undiluted solution used for the 10x dilutions
Protocol: (§1) The amount of Compound A or Compound B calculated for selected concentrations was weighed into volumetric flasks. Equimolar quantities of combining acid, amino acid, or base were added either as solutions or in dry form. Deionized water was added to bring the volume to that desired for the preselected concentrations.. All flasks were sonicated for 15 minutes, allowed to stand at room temperature for 30 minutes, then filtered through a fine frit sintered glass funnel. After the pH of the filtrate was taken, suitable dilutions were made into 0.1N HCl for ultraviolet spectrophotometric assay of concentration. Ten fold dilutions of the original filtrates were made into standard I.V. solutions.

[2] = Solubility screening procedure (concentration and pH of filtrate); format: physicochemical; settings: for Conc. of CPD A: compound A + equimolar acid; for Conc. of CPD A / Conc. of CPD B: amino acid or base in deionized water, room temperature, filtrate, UV assay; for pH of Solution: pH of the filtrate; for Conc. of CPD B: compound B + equimolar acid
Protocol: as §1

SMILES	Conc. of CPD A [2]	pH of Solution ([2]; CPD A solutions)	Conc. of CPD B [2]	pH of Solution ([2]; CPD B solutions)	further results
CCn1cc(C(=O)O)c(=O)c2cc(F)c(N3CCNCC3)cc21 [A Acetic]	235000 µg/mL	5.3			Solution 1 pH dil [1]: 5.4; Solution 1 ppt 24 hr [1]: no; Solution 2 pH dil [1]: 5.0; Solution 3 pH dil [1]: 5.3; Solution 3 ppt 24 hr [1]: no; Solution 2 ppt 24 hr [1]: no; Solution 4 pH dil [1]: 5.3; Solution 4 ppt 24 hr [1]: no; pH of Solut. [1]: 5.3; Concen. of Cpd A [1]: 235000 µg/mL
CCn1cc(C(=O)O)c(=O)c2cc(F)c(N3CCNCC3)cc21 [A Choline]	53500 µg/mL	10.34			
CCn1cc(C(=O)O)c(=O)c2cc(F)c(N3CCNCC3)cc21 [A Citric]	1500 µg/mL	3.32			
CCn1cc(C(=O)O)c(=O)c2cc(F)c(N3CCNCC3)cc21 [A D,L-Alanine]	900 µg/mL	6.44			
CCn1cc(C(=O)O)c(=O)c2cc(F)c(N3CCNCC3)cc21 [A Diethanolamine]	7500 µg/mL	9.68			
CCn1cc(C(=O)O)c(=O)c2cc(F)c(N3CCNCC3)cc21 [A Galacturonic]	166000 µg/mL	5.44			
CCn1cc(C(=O)O)c(=O)c2cc(F)c(N3CCNCC3)cc21 [A Gluconic]	182000 µg/mL	4.3			
CCn1cc(C(=O)O)c(=O)c2cc(F)c(N3CCNCC3)cc21 [A Hydrochloric]	201000 µg/mL	1.52^a			Solution 1 pH dil [1]: 2.7; Solution 1 ppt 24 hr [1]: no; Solution 2 pH dil [1]: 2.8; Solution 3 pH dil [1]: 2.7; Solution 3 ppt 24 hr [1]: no; Solution 2 ppt 24 hr [1]: no; Solution 4 pH dil [1]: 4.6; Solution 4 ppt 24 hr [1]: no; pH of Solut. [1]: 1.52; Concen. of Cpd A [1]: 201000 µg/mL
CCn1cc(C(=O)O)c(=O)c2cc(F)c(N3CCNCC3)cc21 [A L-Arginine]	11100 µg/mL	9.8			
CCn1cc(C(=O)O)c(=O)c2cc(F)c(N3CCNCC3)cc21 [A L-Histidine]	700 µg/mL	7.4			
CCn1cc(C(=O)O)c(=O)c2cc(F)c(N3CCNCC3)cc21 [A L-Leucine]	900 µg/mL	6.2			
CCn1cc(C(=O)O)c(=O)c2cc(F)c(N3CCNCC3)cc21 [A L-Lysine]	4200 µg/mL	9.5			
CCn1cc(C(=O)O)c(=O)c2cc(F)c(N3CCNCC3)cc21 [A L-Proline]	900 µg/mL	6.28			
CCn1cc(C(=O)O)c(=O)c2cc(F)c(N3CCNCC3)cc21 [A Lactobionic]	46500 µg/mL	4.65			
CCn1cc(C(=O)O)c(=O)c2cc(F)c(N3CCNCC3)cc21 [A Maleic]	45100 µg/mL	2.79			
CCn1cc(C(=O)O)c(=O)c2cc(F)c(N3CCNCC3)cc21 [A Oxalic]	19800 µg/mL	2.14			
CCn1cc(C(=O)O)c(=O)c2cc(F)c(N3CCNCC3)cc21 [A Sodium Hydroxide]	131000 µg/mL	10.0			

SMILES	Conc. of CPD A [2]	pH of Solution ([2]; CPD A solutions)	Conc. of CPD B [2]	pH of Solution ([2]; CPD B solutions)	further results
CCn1cc(C(=O)O)c(=O)c2cc(F)c(N3CCNCC3)cc21 [A Succinic]	128000 µg/mL	4.25			
CCn1cc(C(=O)O)c(=O)c2cc(F)c(N3CCNCC3)cc21 [A Tartaric]	3500 µg/mL	3.02			
CCn1cc(C(=O)O)c(=O)c2cc(F)c(N3CCNCC3)nc21 [B Choline]			38200 µg/mL	9.8	
CCn1cc(C(=O)O)c(=O)c2cc(F)c(N3CCNCC3)nc21 [B Citric]			1300 µg/mL	3.14	
CCn1cc(C(=O)O)c(=O)c2cc(F)c(N3CCNCC3)nc21 [B Diethanolamine]			4300 µg/mL	9.7	
CCn1cc(C(=O)O)c(=O)c2cc(F)c(N3CCNCC3)nc21 [B Gluconic]			168000 µg/mL	4.6	
CCn1cc(C(=O)O)c(=O)c2cc(F)c(N3CCNCC3)nc21 [B Glycine]			1200 µg/mL	6.87	
CCn1cc(C(=O)O)c(=O)c2cc(F)c(N3CCNCC3)nc21 [B L-Arginine]			6700 µg/mL	9.7	
CCn1cc(C(=O)O)c(=O)c2cc(F)c(N3CCNCC3)nc21 [B L-Histidine]			1100 µg/mL	7.53	
CCn1cc(C(=O)O)c(=O)c2cc(F)c(N3CCNCC3)nc21 [B L-Lysine]			4300 µg/mL	9.4	
CCn1cc(C(=O)O)c(=O)c2cc(F)c(N3CCNCC3)nc21 [B L-Proline]			1100 µg/mL	6.92	
CCn1cc(C(=O)O)c(=O)c2cc(F)c(N3CCNCC3)nc21 [B Lactobionic]			99000 µg/mL	3.6 ^b	
CCn1cc(C(=O)O)c(=O)c2cc(F)c(N3CCNCC3)nc21 [B Maleic]			7750 µg/mL	2.60	
CCn1cc(C(=O)O)c(=O)c2cc(F)c(N3CCNCC3)nc21 [B Oxalic]			2800 µg/mL	1.76^b	
CCn1cc(C(=O)O)c(=O)c2cc(F)c(N3CCNCC3)nc21 [B Succinic]			75000 µg/mL	4.45^b	
CCn1cc(C(=O)O)c(=O)c2cc(F)c(N3CCNCC3)nc21 [B Tartaric]			7700 µg/mL	3.46	
